# US5296485A, “Substituted N-phenylpiperidines and drugs therefrom” (BASF Aktiengesellschaft, priority 1991, dated 1994)
# Read-outs that look alike come from different tables or passages of the source.
# Assays:
# guinea-pig hearts = assay: ECG measurement of QT prolongation on isolated perfused (Langendorff) guinea-pig hearts; design: species or system guinea-pig (male Duncin-Hartley); conditions: Cavia porcellus, 0.25 h; isolated guinea-pig heart, Krebs-Henseleit perfusate, 37° C., cumulative addition at 15 min intervals; linear regression on log dose; read-out: ED20% (dose at which the QT interval is increased by 20% from the initial level)
# From the text: In this connection, the cardiac cycle is divided into systole (contraction of the heart), also called QT interval, and diastole (relaxation of the heart with filling of the ventricles with blood). Repolarization inhibitors increase the QT interval but have a negligible effect on the atrioventricular conduction time (PQ interval) and the period of isometric contraction (QRS time, from start of systole to opening of the semilunar valves) (see Pschyrembel, 254th Edition, 1982).
# The activity of the compounds according to the invention as repolarization inhibitors can be investigated in animal experiments by ECG measurements on, for example, guinea-pig hearts (see Basic Res. Cardiol. 82 (1987) 437; J. Pharmacol. Methods 21 (1989) 195). Comparison of the activities of various substances is based, for example, on the dose of an active substance at which the QT interval is increased by 20% from the initial level (ED20%). To do this, the logarithms of the doses of the substances are plotted against the experimentally found relative changes in the QT interval, and linear regression is used to determine the equation of a straight line from which the ED20% can then be calculated.
# This method was used to determine the ED20% values of compounds according to the invention (see Table 1) . The comparison substance was D-sotalol [4'-(1-hydroxy-2-(isopropylamino)ethyl)methanesulfonanilide].
# The experimental animals were male Duncin-Hartley guinea-pigs weighing from 300 to 350 g. 30 min after administration of 1250 I.U. of heparin/kg of body weight into the abdominal cavity, the animals were sacrificed by a blow to the back of the neck. The common carotid arteries were severed for exsanguination, then the thoracic cavity was opened and the heart was removed and connected to a perfusion apparatus. The Langendorff perfusion was carried out with oxygen-enriched Krebs-Henseleit solution (NaCl 6896 mg/l; KCl 350 mg/l; MgSO4 285 mg/l; CaCl2 370 mg/l; KH2 PO4 161 mg/l; NaHCO3 2090 mg/l; glucose 2000 mg/1) at 37° C. The perfusion volume per unit time was 4 to 6 ml/min, the total volume was 100 ml and the perfusion pressure was 60 to 70 mm Hg. Circulating perfusion was carried out after an equilibration time of 30 min.
# Two silver electrodes attached to the surface of the heart in the upper region of the left coronary artery and on the rear of the heart at the level of the valve were used for the ECG recordings. The PQ and QT intervals and QRS times, and the heart rate, were measured.
# The substances were added to the perfusate cumulatively at 15 min intervals.
# sigma receptor [1] = assay: Sigma receptor binding ([^3 H]-ditolylguanidine); conditions: rat cerebra membranes, pH 7.7, 37° C., read-out: Activity constants Ki for the [^3 H]-ditolylguanidine binding site
# sigma receptor [2] = conditions: cited from earlier work
# sigma binding sites = conditions: J. Pharmacol. Exp. Ther. 238 (1986) 739; cited from earlier work
# humans = conditions: substances which bind to sigma receptors; J. Pharmacol. Exp. Ther. 197 (1976) 517; cited from earlier work
compound,measurement,setting,value
"CN(Cc1ccccc1)CC1CCN(c2ccc([N+](=O)[O-])cc2)CC1 [Example 2, 4-(N-Benzyl-N-methylaminomethyl)-1-(4-nitrophenyl)piperidine]",EC20,guinea-pig hearts,420 nM
same,Ki,sigma receptor [1],11 nM
"CN(Cc1ccc(NS(C)(=O)=O)cc1)CC1CCN(c2ccc(NS(C)(=O)=O)cc2)CC1 [Example 10, 1-(4-Methanesulfonamidophenyl)-4-[N-(4-methanesulfonamidobenzyl)-N-methylaminomethyl]piperidine]",EC20,guinea-pig hearts,960 nM
O=C(CCCN1CCC(O)(c2ccc(Cl)cc2)CC1)c1ccc(F)cc1 [haloperidol],affinity of the haloperidol-sensitive sigma receptors,sigma receptor [2],high affinity
same,affinity for sigma binding sites,sigma binding sites,high affinity
C[C@H]1[C@H]2Cc3ccc(O)cc3[C@]1(C)CCN2CC1CC1 [cyclazocine],psychotomimetic effects in humans,humans,psychotomimetic effects
CNC1(c2ccccc2Cl)CCCCC1=O (stereo not shown) [ketamine],psychotomimetic effects in humans,humans,psychotomimetic effects
"CN(CC(O)c1ccc(F)cc1)C1CCN(c2ccc([N+](=O)[O-])cc2)CC1 (stereo not shown) [Example 12, 4-[N-[2-(4-Fluorophenyl)-2-hydroxyethyl]-N-methylamino]-1-(4-nitrophenyl)piperidine]",EC20,guinea-pig hearts,210 nM
"OC(CCCN1CCN(c2ncc(F)cn2)CC1)c1ccc(F)cc1 (stereo not drawn) [BMY 14802, α-(4-fluorophenyl)-4-(5-fluoro-2-pyrimidinyl)-1-piperazinebutanol]",affinity for sigma binding sites,sigma binding sites,high affinity
"CN(Cc1ccccc1)C1CCCN(c2ccc([N+](=O)[O-])cc2)C1 (stereo not shown) [Example 11, 3-(N-benzyl-N-methylamino)-1-(4-nitrophenyl)piperidine]",EC20,guinea-pig hearts,1100 nM
same,Ki,sigma receptor [1],2 nM
c1ccc(C2(N3CCCCC3)CCCCC2)cc1 [phencyclidine],affinity of the haloperidol-sensitive sigma receptors,sigma receptor [2]; statement in words on the receptor used in the assay,low affinity
CC(C)=CCN1CCC2(C)c3cc(O)ccc3CC1C2C (stereo not shown) [pentazocine],psychotomimetic effects in humans,humans,psychotomimetic effects
"O=[N+]([O-])c1ccc(N2CCC(N3CCC(c4ccccc4)CC3)CC2)cc1 [Example 8, 1-(4-Nitrophenyl)-4-(4-phenyl-1-piperidinyl)piperidine]",Ki,sigma receptor [1],2.8 nM
"CC(C)NC[C@@H](O)c1ccc(NS(C)(=O)=O)cc1 [D-sotalol, 4'-(1-hydroxy-2-(isopropylamino)ethyl)methanesulfonanilide]",EC20,guinea-pig hearts,16000 nM
"N#Cc1ccc(N2CCC(N3CCN(c4ccc([N+](=O)[O-])cc4)CC3)CC2)cc1 [Example 3, N-[1-(4-Cyanophenyl)-4-piperidinyl)-N'-(4-nitrophenyl)piperazine]",EC20,guinea-pig hearts,31 nM
